From BindingDB's records for PubMed 10411589 (The University of Queensland, 1999) come the findings set out here.

Assay [1] concerns the target Sodium-dependent noradrenaline transporter (Bos taurus, UniProt P51143).
Assay [2] has as its target Norepinephrine transporter (Rattus norvegicus, UniProt Q9JIA2).
The target in assay [3] is Sodium-dependent noradrenaline transporter (Homo sapiens, UniProt P23975).

SMILES strings stand for the structures.

Sequence of Sodium-dependent noradrenaline transporter (Bos taurus, UniProt P51143) (P51143 whole entry): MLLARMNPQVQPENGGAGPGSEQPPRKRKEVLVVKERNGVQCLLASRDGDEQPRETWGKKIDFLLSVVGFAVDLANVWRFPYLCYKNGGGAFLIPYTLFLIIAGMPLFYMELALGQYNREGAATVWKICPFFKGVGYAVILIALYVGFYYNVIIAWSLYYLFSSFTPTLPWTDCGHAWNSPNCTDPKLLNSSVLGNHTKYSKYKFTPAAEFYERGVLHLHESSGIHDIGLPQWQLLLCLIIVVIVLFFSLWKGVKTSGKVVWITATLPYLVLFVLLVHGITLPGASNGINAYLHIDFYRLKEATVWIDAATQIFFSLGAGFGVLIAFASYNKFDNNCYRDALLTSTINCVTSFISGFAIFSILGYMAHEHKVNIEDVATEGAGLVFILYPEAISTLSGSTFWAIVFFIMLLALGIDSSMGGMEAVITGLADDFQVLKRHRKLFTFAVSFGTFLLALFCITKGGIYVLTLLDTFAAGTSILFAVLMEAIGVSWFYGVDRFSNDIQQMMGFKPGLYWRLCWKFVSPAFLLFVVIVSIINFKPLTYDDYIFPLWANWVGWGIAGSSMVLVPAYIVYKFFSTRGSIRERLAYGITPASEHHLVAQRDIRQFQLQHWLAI
Sequence of Sodium-dependent noradrenaline transporter (Homo sapiens, UniProt P23975) (P23975 whole entry): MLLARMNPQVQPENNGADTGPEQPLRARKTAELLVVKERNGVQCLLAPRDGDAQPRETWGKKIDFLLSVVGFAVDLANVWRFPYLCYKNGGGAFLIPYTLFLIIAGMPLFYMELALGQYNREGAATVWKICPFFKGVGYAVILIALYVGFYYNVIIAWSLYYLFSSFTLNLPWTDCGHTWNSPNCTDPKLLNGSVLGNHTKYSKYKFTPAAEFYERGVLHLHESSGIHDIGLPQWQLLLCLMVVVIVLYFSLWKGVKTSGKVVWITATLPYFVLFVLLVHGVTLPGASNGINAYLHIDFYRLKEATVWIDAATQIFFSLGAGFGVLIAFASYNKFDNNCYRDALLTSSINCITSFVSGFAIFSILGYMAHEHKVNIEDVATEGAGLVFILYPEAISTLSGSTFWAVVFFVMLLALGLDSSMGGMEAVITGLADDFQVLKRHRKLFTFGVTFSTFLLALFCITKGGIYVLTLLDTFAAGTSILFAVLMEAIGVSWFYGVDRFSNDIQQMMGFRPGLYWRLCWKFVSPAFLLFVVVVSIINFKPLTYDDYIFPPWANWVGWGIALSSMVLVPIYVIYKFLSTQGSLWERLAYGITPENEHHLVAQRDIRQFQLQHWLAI

As to `CN(C)CCCN1c2ccccc2CCc2ccccc21`, the Ki in assay [1] came to 93.6 nM.

As to `NCCc1ccc(O)c(O)c1`, the Ki in assay [2] is 392 nM; in assay [1] it was 397 nM.

Regarding `CNCCC(Oc1ccccc1OC)c1ccccc1` (stereo not given) [3-(2-methoxyphenoxy)-N-methyl-3-phenylpropan-1-amine], the Ki in assay [2] is 5.74 nM.

In the case of `CNCC(O)c1ccc(O)c(O)c1` (stereo not given) [EPINEPHRINE], the inhibition constant Ki in assay [3] was 3680 nM; in assay [2] it was 6500 nM; in assay [1], 5000 nM.

`C[n+]1ccc(-c2ccccc2)cc1` [NSC_39484]: the Ki in assay [3] was determined as 507 nM; in assay [2], 778 nM; in assay [1], 570 nM.

Broadly, the Ki is a measure of affinity in units of concentration, obtained from inhibition or displacement. Low readings indicate higher affinity, high ones lower affinity.
